Measurements from patent publication US12037361B2, “Methods for treating multidrug resistant breast cancer” (THE HONG KONG POLYTECHNIC UNIVERSITY, priority 2021, dated 2024).
Residues, ends and D or L forms follow the SMILES beside them.

How the values were obtained:
MCF-7 CSC = assay: Reversal of chemoresistance in MCF-7 CSC (MTS cell viability assay); type: cell-based, human
Description: (L) Determination of 50% Inhibitory Concentration (IC50) by MTS Assay:
MCF-7 AC and derived cells were seeded onto 96-well plates at a density of 1×10^4 cells per well and treatments of anticancer drugs or peptides were administered accordingly. Following 72-hour incubation at 37° C. with 5% CO2, cell viability was assessed using CellTiter 96 AQueous Non-Radioactive Cell Proliferation Assay (Promega). The IC50 value was estimated from the optical density at 492 nm using GraphPad.

in vivo = assay: in vivo; parameters: species or system Balb/c mice; settings: mouse, iv, 25 mg/kg
Description: (M) Pharmacokinetic Study of SHARPIN-Derived Peptides:
SHARPIN-derived peptides powder was dissolved in 1×PBS and administered intravenously at 25 mg/kg to overnight-starved Balb/c mice (n=3). At different time points (5, 15, 30, 60, 120, 240, 420 min), blood was collected via cardiac puncture and placed in a heparinized Eppendorf tube followed by centrifuged at 14,000 rpm for 5 min to obtain blood plasma. Plasma was stored at −80° C. until analysis. Plasma concentration data were analyzed by non-compartmental model. Area under plasma concentration-time curve (AUC), distribution half-life (t1/2α) and elimination half-life (t1/2β) were calculated by PK solution2.0 (Summit Research Service, Ashland, USA).
(O) UPLC/QQQ-MS Analysis Protocol:
Agilent 6460 Ultra Performance Liquid Chromatography-Electrospray Ionization Triple Quadrupole mass spectrometer (UPLC-QQQ-MS) was used in sample separation, peptide detection and quantification. Waters Acquity UPLC BEH Protein C4 column (1.7 μm, 2.1×100 mm) was used for separation. SHARPIN-derived peptides were separated and eluted by a gradient of water (0.1% FA, v/v) and acetonitrile (ACN) (0.1% FA, v/v) at a constant flow rate of 0.3 mL/min. During separation, an elution protocol was used as follows. Equilibration: 0 to 1 min, 5% ACN. Elution gradient: 1 to 10 min, ACN from 5 to 99%. Regeneration: 10 to 11 min, 99% ACN, then 11 to 11.5 min, ACN from 99% to 5%. Re-equilibration: 11.5 to 13 min: 5% acetonitrile. A hundred microlitres of plasma/tumor samples were added with 300 μL acetonitrile (1% formic acid (FA)) for protein and peptide precipitation. […] after centrifugation at 14,000 rpm for 10 minutes. Then the samples were reconstituted in 50% methanol (0.1% FA, v/v), filtered through a 0.22 μm nylon filter, and kept in the autosampler at 4° C. for analysis. Twenty microliters were injected into the MS. The MS was operated in positive electrospray ionization (ESI+) mode with supply of 300° C. gas temperature and sheath gas temperature, 8 L/min drying gas, and 11 L/min sheath gas flow and 3.5 kV capillary voltage. The signals of TAT-SP and DRI-TAT-SP were recorded at m/z 563 to 661 at collision energy (CE) of 15 eV and m/z 569 to 637 at CE of 20 eV, respectively. TAT-SP and DRI-TAT-SP were eluted at 4.05 and 3.86 minutes, respectively.

[1] = system: MCF7 human breast cancer xenograft; assay: In vivo efficacy study in MCF7 breast cancer xenograft model; settings: for No. of toxicity death: MCF7 xenograft nude mice, deaths/animals; for tumor volume at end of study: 20 days; for Tumor inhibition (%): 10 injections in 20 days
Description: Data obtained are analyzed to evaluate treatment outcomes. Tumor doubling time is calculated using tumor volumes obtained from the end of experiment versus the tumor volumes on the first day of treatment. Tumor inhibition (%) is calculated using the tumor volumes obtained from the end of experiment. Corresponding equations of determining tumor inhibition (T/C) and tumor doubling time (Td) are provided as follows:
(Q) In Vivo Efficacy Study of DRI-TAT-SP Combined with DOX in Treating MCF7 Breast Cancer Xenograft Model:
Six- to eight-week-old female Balb/c nude mice were maintained under specific pathogen-free conditions prior to in vivo efficacy study. Each animal was implanted with a piece of […] pellet 0.72 mg, 60-day release. (Cat No. SE-121, Innovative Research of America, Sarasota, FL). Four days later, the nude mice were inserted at the both flanks with a sesame sized (around 10 mm^3) MCF-7 tumor piece originated from a tumor bulk. When the tumor reached approximately 100 mm^3 (21-28 days), the mice were randomized and administered intravenously with (1) 1×PBS, (2) DOX 1.2 mg/kg, (3) DRI-TAT-SP 25 mg/kg or (4) DOX 1.2 mg/kg+DRI-TAT-SP 25 mg/kg once every 2 days for a total of 10 injections. Tumor volume was measured using digital caliper once every 4 days. Estimated tumor volume (mm^3) was calculated as ½×length (mm)×width (mm)^2. The mouse body weights were recorded once every two days. The tumor doubling time (Td) was calculated as t×log 2/log(Vf/V0), where t, Vf and V0 stand for interval time, percentage change of tumor volume on final day and percentage change of tumor volume on initial day.

FIG. 7B = assay: FIG. 7B
Source text: Table printed on a drawing sheet, FIG. 7B
First reader's note: The table is printed as an inset in the plasma level versus time plot of DRI-TAT-SP, and the substance name is taken from the plot axis.

[2] = In vivo toxicity test in Balb/c mice; settings: healthy Balb/c mice, DOX 1.2 mg/kg i.v. once every two days, 10 injections
Description: (P) In Vivo Toxicity Test in Balb/c Mice:
Healthy female Balb/c mice (6-8 weeks old) were randomized into 3 groups and were administered with (1) DOX 1.2 mg/kg i.v., (2) DRI-TAT-SP 25 mg/kg i.v, and (3) DOX 1.2 mg/kg+DRI-TAT-SP 25 mg/kg i.v. once every two days (q2d) for 10 injections via tail vein injection. The body weight of the mice was measured once every 2 days. Any toxicity symptoms including body weight change and behavioral changes will be monitored.

ITGA2/CRT interaction = target: T1, ITGA2/CRT interaction (Homo sapiens, UniProt P17301); assay: Co-immunoprecipitation with anti-CRT antibody: competition with CRT for KXGFFKR motif of ITGA2; type: binding; settings: CSC lysate immunoprecipitated with anti-CRT antibody; TAT peptides at 1 μM for 24 hours
T1 construct: endogenous in cells; host or cells: MCF-7-derived cells (lysate)
Description: Calreticulin (CRT) from MCF-7-derived cells was immunoprecipitated by anti-CRT (CST) antibody. In brief, MCF-7-derived cells, with or without 24-hour incubation of 1 μM TAT-SP or TAT-SPScr, were collected and subsequently lysed with RIPA buffer on ice for 30 minutes. The lysate was diluted 5-fold with PBS and incubated with anti-CRT antibody overnight at 4° C. with simultaneous mixing on a rotating platform, followed by further incubation of Protein-G PLUS agarose (Santa Cruz Biotechnology) at 4° C. for at least 2 hours.
After incubation, agarose beads were centrifuged and washed by PBS. Immunoprecipitated proteins were collected by treating the beads with 0.2 M glycine and subjected to Western Blotting (WB) analysis.

Akt pathway = assay: Western blotting of p-Akt (T308) in CSCs; type: cell-based, human; settings: 1 μM peptide for 24 hours
Description: (K) Protein Preparation and Western Blotting:
Total protein was extracted with RIPA buffer supplied with protease inhibitor (Roche), resolved in 10% SDS-PAGE and transferred onto Immobilon-P PVDF membrane (Millipore). Membranes were blocked with 5% non-fat dry milk in Tris-buffered saline with 0.1% Tween (TBST) for 2 hours, then were incubated overnight with corresponding antibodies at 4° C., followed by incubation with horseradish peroxidase-conjugated goat anti-mouse IgG (Santa Cruz Biotechnology) or goat anti-rabbit IgG (Santa Cruz Biotechnology) as appropriate, for 2 hours at room temperature in TBST. Antibody binding was detected with Pierce ECL Western Blotting Substrate (Thermo Scientific) and images were visualized with Azure C600 imaging system (Azure Biosystems). The antibodies used were anti-ITGA2 (Abcam), anti-CRT (CST), anti-ILR2 (CST), anti-MRP1/ABCC1 (CST), anti-Mdr-1 (Santa Cruz Biotechnology), anti-Akt (pan) (CST), anti-pAkt (S473) (CST), anti-pAkt (T308) (CST), p53 (Santa Cruz Biotechnology) and anti-β-actin (Santa Cruz Biotechnology).

MRP1 = assay: DOX accumulation assay in CSCs; type: cell-based, human; settings: 5 μM DOX, 1 μM peptide for 24 hours
Description: (I) DOX Accumulation Assay:
To assess MRP1 activity, 2×10^5 MCF-7 AC and derived cells, with or without 24-hour incubation of 1 μM TAT-SP or TAT-SPScr, were treated with 5 μM DOX at 37° C. for 2 hours. After removal of extracellular drugs, cells were divided into two equal halves. One half was lysed with lysis buffer (isopropanol with 0.75 M HCl and 0.2% Triton X-100) at room temperature for 30 minutes; the other half was incubated with 5 μM CMFDA (Invitrogen) in darkness at room temperature for 30 minutes. The fluorescent intensities of drugs and dyes were detected with CLARIOstar (BMG LABTECH) and relative drug concentrations were normalized to CMFDA level.

CSCs = assay: Annexin V apoptosis assay by flow cytometry in CSCs; type: cell-based, human; settings: 1 μM DOX for 24 hours, 1 μM peptide
Description: (F) Flow Cytometry Analysis:
Cells were detached by Phosphate buffered saline (PBS) with 2.5 mM EDTA and washed with PBS. For determining CSC population, a total of 1×10^6 cells were incubated with APC-CD44 (BD Biosciences) and PE-CD24 (BD Biosciences) in FACS solution (PBS with 1% BSA and 1 mM EDTA) for 30 minutes on ice. APC-IgG2 (BD Biosciences) and PE-IgG2 (BD Biosciences) were used as isotype controls. For determining apoptotic population, a total of 1×10^6 cells were first treated with or without 1 μM DOX for 24 hours, in the absence or presence of 1 μM TAT-SP or TAT-SPScr, followed by incubation with FITC-Annexin V (BD Biosciences) and propidium iodide (PI) in binding buffer (10 mM Hepes, pH 7.4, 140 mM NaCl and 2.5 mM CaCl2) for 30 minutes on ice as per the manufacturer's instructions. For determining CRT surface localization, a total of 1×10^6 cells, treated with or without 1 μM DOX for 24 hours, were incubated with anti-CRT antibody (1:800, CST) in PBS with 3% BSA for 1 hour on ice. After washing with PBS, cells were further incubated with 2 μg/mL goat anti-rabbit Alexa Fluor 488 (Invitrogen) for 45 minutes on ice. Fluorescence signals were analyzed by BD Accuri C6 flow cytometer (BD Biosciences).

[3] = MCF7 xenograft, DOX 1.2 mg/kg, DRI-TAT-SP 25 mg/kg
[4] = MCF7 xenograft, i.v. once every 2 days, DOX 1.2 mg/kg, DRI-TAT-SP 25 mg/kg

T1 sequence (P17301 30-1181): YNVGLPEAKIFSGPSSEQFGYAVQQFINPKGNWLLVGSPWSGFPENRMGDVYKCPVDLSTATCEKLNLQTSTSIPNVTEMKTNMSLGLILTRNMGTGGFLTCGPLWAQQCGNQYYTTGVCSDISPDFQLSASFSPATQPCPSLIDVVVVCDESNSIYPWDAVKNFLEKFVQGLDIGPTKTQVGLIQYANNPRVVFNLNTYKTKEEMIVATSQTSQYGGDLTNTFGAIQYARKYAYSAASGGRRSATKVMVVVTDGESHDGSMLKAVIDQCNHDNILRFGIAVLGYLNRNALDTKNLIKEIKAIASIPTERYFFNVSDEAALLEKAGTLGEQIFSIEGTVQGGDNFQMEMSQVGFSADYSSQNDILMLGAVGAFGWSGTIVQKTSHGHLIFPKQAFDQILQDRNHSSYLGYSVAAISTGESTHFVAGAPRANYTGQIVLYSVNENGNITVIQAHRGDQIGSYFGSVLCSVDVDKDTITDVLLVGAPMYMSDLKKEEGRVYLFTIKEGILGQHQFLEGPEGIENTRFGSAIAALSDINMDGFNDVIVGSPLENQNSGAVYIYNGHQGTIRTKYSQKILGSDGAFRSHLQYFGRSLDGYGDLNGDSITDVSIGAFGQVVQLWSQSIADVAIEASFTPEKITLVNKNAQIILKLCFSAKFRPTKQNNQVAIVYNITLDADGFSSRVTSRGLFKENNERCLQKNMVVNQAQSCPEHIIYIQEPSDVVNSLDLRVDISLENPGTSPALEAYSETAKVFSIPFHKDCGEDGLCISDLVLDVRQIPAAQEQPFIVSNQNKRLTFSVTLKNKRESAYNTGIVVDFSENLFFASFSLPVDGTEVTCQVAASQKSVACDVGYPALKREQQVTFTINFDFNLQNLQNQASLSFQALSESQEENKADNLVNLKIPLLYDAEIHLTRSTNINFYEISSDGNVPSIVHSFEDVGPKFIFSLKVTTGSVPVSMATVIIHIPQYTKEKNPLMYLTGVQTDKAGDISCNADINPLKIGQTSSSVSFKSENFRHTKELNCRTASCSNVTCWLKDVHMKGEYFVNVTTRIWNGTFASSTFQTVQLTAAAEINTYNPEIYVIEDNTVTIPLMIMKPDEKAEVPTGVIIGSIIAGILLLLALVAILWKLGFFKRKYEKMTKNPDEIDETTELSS
T1 sequence (P05556 21-798 partner): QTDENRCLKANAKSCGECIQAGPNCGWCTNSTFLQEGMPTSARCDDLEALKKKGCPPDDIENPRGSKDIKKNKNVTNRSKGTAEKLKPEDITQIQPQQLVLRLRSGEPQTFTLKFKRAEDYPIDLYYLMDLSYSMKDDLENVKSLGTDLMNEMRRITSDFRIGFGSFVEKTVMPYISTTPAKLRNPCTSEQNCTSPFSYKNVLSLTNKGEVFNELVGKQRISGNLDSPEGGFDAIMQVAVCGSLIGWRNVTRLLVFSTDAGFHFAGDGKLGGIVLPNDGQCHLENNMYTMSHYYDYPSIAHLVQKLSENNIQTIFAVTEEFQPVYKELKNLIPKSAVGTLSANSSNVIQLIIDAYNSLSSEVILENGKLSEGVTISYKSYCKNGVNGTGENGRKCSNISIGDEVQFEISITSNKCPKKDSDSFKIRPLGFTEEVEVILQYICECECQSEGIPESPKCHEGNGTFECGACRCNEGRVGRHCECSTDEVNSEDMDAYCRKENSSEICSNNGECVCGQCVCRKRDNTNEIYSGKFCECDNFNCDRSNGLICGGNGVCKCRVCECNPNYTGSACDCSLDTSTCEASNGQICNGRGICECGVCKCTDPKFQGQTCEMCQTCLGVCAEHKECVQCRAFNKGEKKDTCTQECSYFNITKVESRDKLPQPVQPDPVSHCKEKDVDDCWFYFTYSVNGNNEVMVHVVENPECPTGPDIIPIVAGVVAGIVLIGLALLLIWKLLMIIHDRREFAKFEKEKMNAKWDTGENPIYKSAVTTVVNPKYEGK

CC[C@@H](C)[C@@H](NC(=O)CNC(=O)[C@@H](CCCNC(=N)N)NC(=O)[C@@H](CS)NC(=O)[C@@H](CC(C)C)NC(=O)[C@@H](CS)NC(=O)[C@H](NC(=O)[C@H]1CCCN1C(=O)[C@@H](CCC(=O)O)NC(=O)[C@@H](CCCNC(=N)N)NC(C)=O)C(C)C)C(=O)N[C@@H](C(=O)N[C@H](Cc1c[nH]c2ccccc12)C(=O)N[C@H](CCCNC(=N)N)C(=O)N[C@H](CCC(N)=O)C(=O)N[C@@H](C(=O)N[C@H](C)C(=O)N1CCC[C@@H]1C(=O)N1CCC[C@@H]1C(=O)N[C@H](Cc1ccccc1)C(=O)NCC(=O)N[C@H](CC(C)C)C(=O)N[C@H](CCC(=O)O)C(=O)N[C@H](CO)C(=O)N[C@H](CCCNC(=N)N)C(=O)N[C@H](CCCNC(=N)N)C(=O)N[C@H](CCCNC(=N)N)C(=O)N[C@H](CCC(N)=O)C(=O)N[C@H](CCCNC(=N)N)C(=O)N[C@H](CCCNC(=N)N)C(=O)N[C@H](CCCCN)C(=O)N[C@H](CCCCN)C(=O)N[C@H](CCCNC(=N)N)C(N)=O)C(C)C)C(C)C [DRI-TAT-SP, Ac-repvclcrgivwrqvappfglesrrrqrrkkr-NH2] (HELM PEPTIDE1{[ac].[dR].[dE].[dP].[dV].[dC].[dL].[dC].[dR].G.[dI].[dV].[dW].[dR].[dQ].[dV].[dA].[dP].[dP].[dF].G.[dL].[dE].[dS].[dR].[dR].[dR].[dQ].[dR].[dR].[dK].[dK].[dR].[am]}$$$$V2.0)
EC50 (MCF-7 CSC; MCF-7 breast CSCs, in the presence of DOX, 72-hour incubation, read-out: EC50 of reversing chemoresistance in the presence of DOX (DOX-EC50)): 2300 ± 400 nM | Cmax (in vivo; Balb/c): 870 ng/mL | half-life (in vivo; Balb/c, distribution half-life t1/2α): 0.265 h | half-life (in vivo; Balb/c, elimination half-life t1/2β): 7.37 h | time of Cmax post administration (in vivo): 5 min | No. of toxicity death [1]: 0/6 | tumor volume at end of study [1, 3]: 325±135 mm^3 | Tumor inhibition (%) [1, 4]: 10.1% | Tumor doubling time ([1]; MCF7 xenograft, i.v. once every 2 days, 10 injections, DOX 1.2 mg/kg, DRI-TAT-SP 25 mg/kg): 12.9 days | AUC(0-obs) | ng-min/mL (FIG. 7B): 118,010 ng-min/mL

COc1cccc2c1C(=O)c1c(O)c3c(c(O)c1C2=O)C[C@@](O)(C(=O)CO)C[C@@H]3O[C@H]1C[C@H](N)[C@H](O)[C@H](C)O1 [Doxorubicin, reference compound]
body weight change [2]: +0.6±2.4% | No. of toxicity death [1]: 0/8 | tumor volume at end of study [1, 3]: 270±73 mm^3 | Tumor inhibition (%) [1, 4]: 21.5%

RKKRRQRRRSELGFPPAVQRWVIGRCLCVPER [TAT-SP]
modulation of CSC chemoresistance with respect to DOX, PTX and VCR (MCF-7 CSC; CSCs, DOX, PTX and VCR IC50 (FIG. 5D)): able to modulate CSC chemoresistance | competition with CRT for the KXGFFKR motif / inhibition of immunoprecipitation of ITGA2 (ITGA2/CRT interaction): compete with CRT | activation of Akt pathway by ITGA2 (p-Akt T308) (Akt pathway): inhibits the activation of Akt pathway | DOX accumulation (MRP1): high level of DOX accumulation | DOX-induced apoptosis (CSCs): leaves CSCs unprotected from DOX-induced apoptosis

SELGFPPAVQRWVIGRCLCVPER [SP, peptide derived from the UBL domain of SHARPIN (residues 259-281)]
competition with CRT for the KXGFFKR motif / inhibition of immunoprecipitation of ITGA2 (ITGA2/CRT interaction): compete with CRT
